Data as given in patent US8568762B2, “Methods for modifying the surface of an implant to provide said surface with calcium” (Biotechnology Institute, I Mas D, S.L., priority 2010, dated 2013).

Experiments:
blood plasma [1] = test: Test 4a: coagulation as a function of the volume concentration of calcium (absorbance 450 nm); type: biochemical, human; conditions: without surfaces; calcium in plasma between 2.5 and 45.6 mM
Protocol: Blood plasma was prepared by extracting blood from three healthy patients. A technique similar to the one described in patent EP1066838B1 was applied to obtain a Plasma Rich in Growth Factors (PRGF): the blood was centrifuged for eight minutes at 460 G; the column of plasma was then separated from the red globules and white globules by manual pipetting (unlike the protocol described in EP1066838B1, in this case, due to the criteria of volume for carrying out the experiments, the entire plasma column was selected, not merely the part richer in platelets). Both the red globules and the white globules were discarded.
For the purpose of determining the ranges of concentration of calcium ions in plasma at which coagulation is initiated, 10 μl of CaCl2.EtOH were placed in concentrations of between 28 and 2000 mM in the bottom of a multi-well plate comprising 96 wells. […] Absorbance was measured immediately in the manner described hereafter.
Immediately after the tubes were filled, absorbance (optical density) was measured with a spectrophotometer at a wavelength of 450 nm. […]
This gradual cross-linking gradually blocks the passage of the reader beam, the absorbance therefore increasing. […] It is at this point that the absorbance (optical density) values are collated so that comparisons can be made between the various samples.

[2] = ambient temperature; cited from earlier work
blood plasma [3] = test: Test 4b: coagulation in the presence of surfaces with or without calcium (titanium tubes, absorbance 450 nm); type: biochemical, human; conditions: surfaces with no calcium; 50 mM NaOH or 0.9 wt. % NaCl treatment, not dried
Protocol: Blood plasma was prepared by extracting blood from three healthy patients. A technique similar to the one described in patent EP1066838B1 was applied to obtain a Plasma Rich in Growth Factors (PRGF): the blood was centrifuged for eight minutes at 460 G; the column of plasma was then separated from the red globules and white globules by manual pipetting (unlike the protocol described in EP1066838B1, in this case, due to the criteria of volume for carrying out the experiments, the entire plasma column was selected, not merely the part richer in platelets). Both the red globules and the white globules were discarded. First of all, the surfaces were prepared. For the study of the coagulation, in which the excess surface calcium was to be measured, hollow tubes were used to enable the reader beam to move longitudinally. […] They were ultrasound-washed with Triton X-100, acetone and ethanol, for 20 minutes. Eight tubes were used per concentration. The solutions were prepared. […] Immediately after the tubes were filled, absorbance (optical density) was measured with a spectrophotometer at a wavelength of 450 nm. […] This gradual cross-linking gradually blocks the passage of the reader beam, the absorbance therefore increasing. […] It is at this point that the absorbance (optical density) values are collated so that comparisons can be made between the various samples.

Structure (SMILES) | final degree of coagulation in volume, normalized with respect to the positive control (blood plasma [1]) | solubility in water [2] [g/100 mL] | degree of coagulation inside titanium tubes normalized to positive control (blood plasma [3])
[Ca+2].[Cl-].[Cl-] [CaCl2, calcium chloride] | sometimes even greater than that of the positive control | > 60 | –
[Cl-].[Na+] [NaCl, sodium chloride] | – | – | lack of coagulation is evident
[Na+].[OH-] [NaOH, sodium hydroxide] | – | – | lack of coagulation is evident
